Patent US20200113852A1, “METHODS OF PATIENT SELECTION AND TREATING TRXR- OR PRDX-OVEREXPRESSED CANCERS” (TRIACT THERAPEUTICS, INC., priority 2017, published 2020)

Assays:
HCT116 cells = experiment: Protein modification by Iniparib-biotin in cells (streptavidin-HRP blot, avidin pull-down LC-MS/MS); format: cell-based, human
Procedure: MDA-MB-453 and HCT116 cells were first pre-treated or not for 48 h with 1 mM BSO. Afterwards cells were incubated in serum-containing conditioned medium with increasing concentrations of Iniparib-biotin derivative for up to 4 hours.
Membranes were blotted with either Streptavidin-HRP (GE Healthcare), monoclonal antibody against GAPDH (Santa Cruz Biotechnology), polyclonal antibody raised against GSTP1 (Santa Cruz Biotechnology) or with MitoProfile® Total OXPHOS human antibody cocktail (Abcam). Detection of reactive bands was performed by enhanced chemiluminescence (West DURA substrate, Pierce, Thermo scientific).
BSO pretreated HCT116 cells were incubated for 4 h with 100 μM Iniparib-biotin. Then clarified octyl-glucoside lysates were combined with monomeric avidin-agarose and mixed overnight at 4° C. […] Final wash was performed with 0.15% octyl-glucoside, 50 mM NaCl, 10 mM Tris-HCl, pH 7.5 prior to Iniparib-biotin modified proteins' elution in 0.1 M glycine, pH 2.8, 20 min at 20° C. After pH adjustment to 8.5 by Ammonium Bicarbonate addition (50 mM final), eluted proteins were reduced (10 mM DTT, 30 min at 56° C.), alkylated (30 mM iodoacetamide, 30 min at 20° C.) and digested with trypsin (10 μg, overnight at 37° C.). Tryptic Iniparib-biotin modified peptides were further purified by monomeric avidin pull-down as described above except that the buffer used was 50 mM NaCl, 10 mM Tris-HCl, pH 7.5. After elution in 0.1 M glycine, pH 2.8, 20 min at 20° C., enriched Iniparib-biotin modified peptides were analyzed by LC-MS/MS. LC-MS/MS experiments were performed on a NanoAcquity UPLC (Waters) coupled to a hybrid LTQ Orbitrap Velos mass spectrometer (Thermo Fisher Scientific) equipped with a nanoelectrospray source. Tryptic digests were loaded onto an UPLC Trap column (Symmetry C18, 5 μm, 180 μm×20 mm, Waters) and washed with 0.2% formic acid at 20 μL/min for 5 min. […] The exact parent mass is the ^12C isotope ion mass of the most intense isotopic pattern detected on the high resolution Orbitrap MS parallel scan and included in the MS/MS selection window.

[1] = test system: cytosol and mitochondria of HCT116 cells; experiment: Subcellular fractionation: Iniparib-biotin labeling of cytosol and mitochondria; format: cell-based, human
Procedure: Cells were homogenized in an ice-cold buffer containing 10 mM Tris-HCl, pH 7.5, protease and phosphatase inhibitors, and 250 mM sucrose in the case of mitochondria preparation, using a glass dounce tissue grinder (30 strokes). After centrifugation at 1,000×g for 5 min at 4° C., homogenates supernatants were collected. For cytosol preparation the 1000×g supernatants were submitted to differential centrifugation in Tris-HCl buffer: a first centrifugation was carried out at 22,000×g for 20 min and the resulting supernatants were further centrifuged at 100,000×g for 60 min. The final supernatants were referred to as the cytosolic fractions.
FIG. 11A and FIG. 11B show HCT116 cells were pre-treated or not for 48 h with 1 mM BSO. Thereafter Iniparib-biotin at 100 μM was added for 4 h. Cell homogenates were then processed for cytosol preparation (FIG. 11A) or mitochondria immuno-purification (FIG. 11B).
Cell homogenates were then processed for cytosol preparation or mitochondria immuno-purification. […]

Which “cellular proteins bearing Iniparib adducts” value (HCT116 cells; BSO pretreated HCT116, 100 μM 4 h, MS/MS qualitative analysis) does the source give for `O=C(CCCC[C@@H]1SC[C@@H]2NC(=O)N[C@@H]21)NCCNC(=O)c1ccc(I)c([N+](=O)[O-])c1` [Iniparib-biotin, 4-iodo-3-nitro-N-(2-(5-((3 aS,4S,6aR)-2-oxohexahydro-1H-thieno[3,4-d]imidazol-4-yl)pentanamido)ethyl)benzamide] here?
The value was “more than 200 cellular proteins”.

What about the “protein labeling with Iniparib-biotin” value (HCT116 cells; HCT116 cells depleted of GSH, up to 100 μM, up to 4 h) of the same compound?
Its value is “strong protein labeling”.

And the “protein modifications by Iniparib-biotin” value (HCT116 cells; HCT116 cells not depleted of GSH)?
The value was “barely detectable”.

What about the “in vitro labeling of isolated cytosolic fraction” value ([1]; 30 μM Iniparib-biotin, with or without NADH/NADPH) of the same compound?
Its value is “mainly when NADPH was added”.

What about the “protein targets in isolated cytosol and mitochondria” value ([1]; fractions from Iniparib-biotin treated HCT116 cells) of the same compound?
Its value is “present in both cell compartments”.
